Assay results as given in PMC8151276, “An Integrated Approach toward NanoBRET Tracers for Analysis of GPCR Ligand Engagement” (Molecules, 2021).

Target: T1, NPY5R (Homo sapiens, UniProt Q15761)
T1 construct: purchased Promega (in-house HiBiT-GPCR construct library, NanoBRET)
T1 sequence (Q15761 1-445): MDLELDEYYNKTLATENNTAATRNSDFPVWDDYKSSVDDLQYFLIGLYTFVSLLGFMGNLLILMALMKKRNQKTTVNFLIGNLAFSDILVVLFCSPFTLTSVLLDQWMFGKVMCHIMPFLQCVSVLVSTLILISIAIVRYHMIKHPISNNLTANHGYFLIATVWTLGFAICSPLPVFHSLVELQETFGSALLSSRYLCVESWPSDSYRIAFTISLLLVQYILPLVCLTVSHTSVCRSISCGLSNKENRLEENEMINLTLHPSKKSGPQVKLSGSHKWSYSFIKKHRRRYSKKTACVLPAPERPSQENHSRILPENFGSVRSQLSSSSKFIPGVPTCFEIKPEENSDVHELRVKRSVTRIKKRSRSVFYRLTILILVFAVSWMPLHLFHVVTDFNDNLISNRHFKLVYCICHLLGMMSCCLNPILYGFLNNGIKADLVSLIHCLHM
Experiment: NanoBRET screen HiBiT-NPY5R in HEK293
Assay type: binding
Protocol: Each tracer candidate was screened across the entire library of HiBiT-GPCR constructs using NanoBRET as the detection modality. As depicted in Figure 4A, the specificity of interactions was evaluated through decrease in BRET due to competitive displacement of a bound tracer by excess parental compound. Each tracer was analyzed for binding to each HiBiT-GPCR fusion in the absence and in the presence of competing parental compound. Briefly, HEK293 cells were transfected with HiBiT-GPCR constructs diluted into promoterless DNA to reduce expression and maximize translocation to the cell surface. Each tracer candidate was then screened at concentrations of 1 μM and 0.1 μM across cells expressing these fusions. Cells were treated for 1.5 h with tracer either alone or in the presence of 20 μM competing parental compound (i.e., control). BRET was measured upon addition of purified LgBiT and subsequent complementation with HiBiT genetically fused to a GPCR. The specificity of interactions was assessed through a decrease in BRET signal due to competitive displacement of the bound tracer. To further gauge the robustness of these interactions, the fold response over the control (i.e., BRETtracer/BRETcontrol) was calculated. We chose a 1.5-fold response, which translates to ≥7-fold signal over noise as the minimal threshold required to score an interaction as positive.
HiBiT-GPCR DNA constructs were diluted in 10 mM Tris pH 8 to a final concentration of 0.01 μg/μL, arrayed in 96-well plates and stored at −20 °C. For transfection, HEK293 cells were suspended in Opti-MEM (without phenol red) supplemented with 2% fetal bovine serum (Seradigm) and 100 units/mL penicillin–streptomycin (Gibco) at a final concentration of 220,000 cells/mL and dispensed into white 96-well plates at 90 μL/well. Subsequent transfections and screens were carried using an Agilent Bravo Automated Liquid Handling Platform. First, the 96-well HiBiT DNA arrays were diluted 25-fold in Opti-MEM (without serum or phenol red) to a final concentration of 0.0004 μg/μL and 20 μL of the diluted DNAs were transferred into new 96-well plates. Next, promoterless carrier DNA (1 μg/μL) was diluted 25-fold (0.04 μg/μL) and then dispensed into the diluted arrays at 20 μL/well. Following brief mixing, Viafect transfection reagent (Promega) diluted 16-fold into Opti-MEM was dispensed into the plates at 40 μL/well. After mixing by pipetting, plates were incubated for 10 min on the pipetting station deck. The DNA-transfection reagent complexes were then added to plates containing cells. To facilitate the screen, 10 μL of DNA-transfection reagent complexes were added in duplicates to the top 4 and bottom 4 rows, resulting in two identical 48-well arrays per plate. Plates with transfected cells were incubated for 18–20 h at 37 °C/5% CO2. A screen of each tracer across the entire library using two different concentrations requires duplicate plates of transfected cells. Depending on the number of tracers being screened, transfections can be scaled up using the same ratios. The next day, for each tracer, four 20× screening solutions in tracer dilution buffer (Promega) were prepared: two duplicates at final concentration of 20 μM and two duplicates at a final concentration of 2 μM. […] The four resulting solutions were diluted 4-fold in Opti-MEM without serum or phenol red to generate 5× solutions (5 µM and 0.5 µM tracer +/− 100 μM competing compound). To screen the library, a BioTek MultiFlo FX liquid dispenser was used to dispense 22.5 µL of tracer solution to the top 4 rows and 22.5 µL tracer + competing compound solution to the 4 bottom rows. Plates were briefly mixed on an orbital shaker and incubated for 1.5 h at room temperature. […] Plates were briefly mixed on an orbital shaker and incubated for 15 min to allow complementation.

Row | SMILES | NanoBRET Fold Response (NPY5R, tracer 0.1μM) | NanoBRET Fold Response (NPY5R, tracer 1μM) | other results
1 | Cc1nc2n(c(=O)c1CCN1CCC(c3noc4cc(F)ccc34)CC1)CCCC2OC(=O)NCCOCCOCCOCCOCCNC(=O)CCc1ccc2n1[B-](F)(F)[N+]1=C(c3ccc[nH]3)C=CC1=C2 (stereo not drawn) [Risperidone-2-NB590] | 0.97 | 0.96 | –
2 | CCOC(=O)c1cc(C#N)c(N2CCC(C(=O)NS(=O)(=O)Cc3ccccc3/C=C/C(=O)NCCNC(=O)CCc3ccc4n3[B-](F)(F)[N+]3=C(c5ccc[nH]5)C=CC3=C4)CC2)nc1C [AZD1283-1-NB590] | – | – | NanoBRET Fold Response (NPY5R, 0.1μM): 1.01; NanoBRET Fold Response (NPY5R, 1μM): 1.03
3 | Cc1cc2c(s1)Nc1ccccc1N=C2N1CCN(CCCNC(=O)CCOCCOCCOCCOCCNC(=O)CCc2ccc3n2[B-](F)(F)[N+]2=C(c4ccc[nH]4)C=CC2=C3)CC1 [Olanzapine-a-2-NB590] | 1.00 | 1.01 | –
4 | COc1ccccc1N1CCN(CCCCN2C(=O)c3ccc(CNC(=O)CCOCCNC(=O)c4ccc(CNC(=O)CCc5ccc6n5[B-](F)(F)[N+]5=C(c7ccc[nH]7)C=CC5=C6)cc4)cc3C2=O)CC1 [NAN-190-3-NB590] | 1.01 | 0.97 | –
5 | CC(C)N(CC[C@H](c1ccccc1)c1cc(CCNC(=O)CCOCCOCCOCCOCCNC(=O)CCc2ccc3n2[B-](F)(F)[N+]2=C(c4ccc[nH]4)C=CC2=C3)ccc1O)C(C)C [Tolterodine-2-NB590] | 0.95 | 0.95 | –
6 | CN(C)CCC=C1c2ccccc2CCc2ccc(C(=O)NCCNC(=O)CCOCCOCCOCCOCCNC(=O)CCc3ccc4n3[B-](F)(F)[N+]3=C(c5ccc[nH]5)C=CC3=C4)cc21 [Amitriptyline-b-2-NB590] | – | – | NanoBRET Fold Response (tracer at 0.1μM, listed as amitriptyline-b-2-NB590): 0.89; NanoBRET Fold Response (tracer at 1μM, listed as amitriptyline-b-2-NB590): 1.02
7 | O=C(CCOCCOCCOCCOCCNC(=O)CCc1ccc2n1[B-](F)(F)[N+]1=C(c3ccc[nH]3)C=CC1=C2)NCCCN1CCN(C2=Nc3ccccc3Oc3ccc(Cl)cc32)CC1 [Loxapine-a-2-NB590] | 0.96 | 1.09 | –
8 | CN(C)CCC=C1c2ccccc2CCc2ccc(C(=O)NCCNC(=O)CCOCCOCCOCCOCCNC(=O)CCc3ccc4n3[B-](F)(F)[N+]3=C(c5ccc[nH]5)C=CC3=C4)cc21 [Amitriptyline-a-2-NB590] | – | – | NanoBRET Fold Response (tracer at 0.1μM): 1.03; NanoBRET Fold Response (tracer at 1μM): 0.99
9 | O=C(CCc1ccc2n1[B-](F)(F)[N+]1=C(c3ccc[nH]3)C=CC1=C2)NCCOCCOCCNC(=O)OCCOCCN1CCN(C2=Nc3ccccc3Sc3ccccc32)CC1 [Quetiapine-a-2-NB590] | 0.98 | 0.87 | –
10 | CN1CCN(C2=Nc3cc(Cl)ccc3N(CC(=O)NCCOCCOCCOCCOCCNC(=O)CCc3ccc4n3[B-](F)(F)[N+]3=C(c5ccc[nH]5)C=CC3=C4)c3ccccc32)CC1 [Clozapine-c-2-NB590] | – | – | NanoBRET Fold Response (NPY5R, 0.1μM tracer): 0.99; NanoBRET Fold Response (NPY5R, 1μM tracer): 0.97
11 | COc1ccc2[nH]c(-c3ccc(CNC(=O)CCOCCOCCOCCOCCNC(=O)CCc4ccc5n4[B-](F)(F)[N+]4=C(c6ccc[nH]6)C=CC4=C5)cc3)c(CCNC(C)=O)c2n1 [AzomelatoninICO9-2-NB590] | – | – | NanoBRET Fold Response (0.1μM tracer): 0.91; NanoBRET Fold Response (1μM tracer): 1.07
12 | O=C(CCOCCOCCOCCOCCNC(=O)CCc1ccc2n1[B-](F)(F)[N+]1=C(c3ccc[nH]3)C=CC1=C2)NCCCN1CCN(C2=Nc3cc(Cl)ccc3Nc3ccccc32)CC1 [Clozapine-a-2-NB590] | – | – | NanoBRET Fold Response (NPY5R, 0.1μM tracer): 1.15; NanoBRET Fold Response (NPY5R, 1μM tracer): 0.96
13 | CCCn1c(=O)c2[nH]c(-c3ccc(OCC(=O)NCCNC(=O)CCOCCNC(=O)c4ccc(CNC(=O)CCc5ccc6n5[B-](F)(F)[N+]5=C(c7ccc[nH]7)C=CC5=C6)cc4)cc3)nc2n(CCC)c1=O [XAC-3-NB590] | 1.02 | 1.10 | –
14 | O=C(CCc1ccc2n1[B-](F)(F)[N+]1=C(c3ccc[nH]3)C=CC1=C2)NCc1ccc(C(=O)NCCOCCOCCNCC(O)COc2cccc3ccccc23)cc1 (stereo not drawn) [Propranolol-3-NB590] | – | – | NanoBRET Fold Response (NPY5R, 0.1μM): 0.99; NanoBRET Fold Response (NPY5R, 1μM): 1.01
15 | N#CN=C(NCCCOc1cccc(CN2CCCCC2)c1)NCCNC(=O)CCOCCOCCOCCOCCNC(=O)CCc1ccc2n1[B-](F)(F)[N+]1=C(c3ccc[nH]3)C=CC1=C2 [Aminopotentidine-2-NB590] | 1.04 | 0.97 | –
16 | COc1ccc2c(n1)c(CCNC(C)=O)cn2CCNC(=O)CCc1ccc2n1[B-](F)(F)[N+]1=C(c3ccc[nH]3)C=CC1=C2 [Azamelatonin-1-NB590] | – | – | NanoBRET Fold Response (0.1μM tracer): 1.14; NanoBRET Fold Response (1μM tracer): 1.09
17 | CC(C)N(CC[C@H](c1ccccc1)c1cc(CCNC(=O)c2ccc(CNC(=O)CCc3ccc4n3[B-](F)(F)[N+]3=C(c5ccc[nH]5)C=CC3=C4)cc2)ccc1O)C(C)C [Tolterodine-BZ-NB590] | 1.05 | 0.99 | –
18 | CN1CCN(C2=Nc3cc(Cl)ccc3Nc3ccc(CNC(=O)CCOCCOCCOCCOCCNC(=O)CCc4ccc5n4[B-](F)(F)[N+]4=C(c6ccc[nH]6)C=CC4=C5)cc32)CC1 [Clozapine-b-2-NB590] | – | – | NanoBRET Fold Response (NPY5R, 0.1μM tracer): 1.02; NanoBRET Fold Response (NPY5R, 1μM tracer): 1.04
